Measured values reported in patent US10220029B2, “Pharmaceutical composition comprising glutarimide derivatives and use thereof in the treatment of eosinophilic diseases” (OBSCHESTVO S ORGANICHENNOI OTVETSTVENNOSTIYU …, priority 2013, dated 2019).
Marks after values point to notes of the source that are not given here.

Experiments:
[1] = test system: model of sephadex-induced eosinophilic lung inflammation in rats; assay: Content of cell elements in BAL in the model of sephadex-induced eosinophilic lung inflammation in rats; format: in vivo, male Wistar rats; details: Table 9, four times, BAL 48 hours after sephadex, n = 7
Protocol: The model of sephadex-induced eosinophilic lung inflammation in rats was realized by a standard method [Evaldsson C, Rydén I, Uppugunduri S. Isomaltitol exacerbates neutrophilia but reduces eosinophilia: new insights into the sephadex model of lung inflammation//Int Arch Allergy Immunol. 2011; 154(4):286-94]. Sephadex G-200 (Pharmacia, Sweden) was administered one time by inhalation to male Wistar rats at a dose of 5 mg/kg. The studied compounds were administered to the animals by the intragastric route four times: 24 hours and 1 hour before and 24 hours and 45 hours after administration of sephadex. The reference preparation, budesonide, was administered according to the same scheme, by inhalation at a dose of 0.5 mg/kg. Bronchoalveolar lavage was taken 48 hours after the inhalation of sephadex, and the total lymphocyte count and leukocyte formula in the lavage were determined. The number of rats in a group was 7 to 10.

[2] = test system: model of allergic rhinitis in guinea pigs; assay: Clinical manifestations of allergic rhinitis in guinea pigs (sneezes, nose scratchings); format: in vivo, guinea pig; details: 2 hours after last ovalbumin, n = 8
Protocol: (§1) The model of allergic rhinitis in guinea pigs was realized by a standard method [Vishnu N. Thakare, M. M. Osama, Suresh R. Naik. […] 2013 September; 17(1):18-25].
(§2) Guinea pigs (250-300 g) were immunized with 4-time (on days 0, 7, 14, and 21) intragastric administration of ovalbumin (100 μg/pig) and aluminium hydroxide (5 mg/pig), both of which were diluted and suspended in a physiological saline solution. […], a solution of ovalbumin (60 mg/mL) was administered intranasally to each nostril of the animals at a dose 20 μL. On day 35, the animals received subcutaneously an ovalbumin solution (200 μg/mL, 25 μL); the animal back was previously shaved in the site of administration. Swelling and redness at the injection site served as a support of sensibilisation. On day 42 of the study, an ovalbumin solution (60 mg/mL, 20 μL/nostril) was administered intranasally. A group of pseudoimmunized animals was formed to control the formation of exactly allergic inflammation: on days 0, 7, 14, and 21, the pigs received a solution of aluminium hydroxide (5 mg/pig), and on days 28 and 35, they received a physiological saline solution, and on day 42, a solution of ovalbumin (60 mg/mL, 20 μL/nostril).
(§3) The studied compounds (14 mg/kg) were administered 3 times by the intragastric route: 48, 24, and 1 hour before the last administration of ovalbumin. The reference preparation, dexamethasone, was administered one time by the intragastric route, 3 hours before the last intranasal administration of ovalbumin.
(§4) Clinical manifestations, such as the number of sneezes and nose scratchings, were registered for 2 hours after the last administration of ovalbumin. Nasal lavage was taken 24 hours after the last administration of ovalbumin, and in this lavage, the total lymphocyte count and leukocyte formula were determined. The number of guinea pigs in a group was 8.

[3] = test system: model of bronchial asthma in guinea pigs; assay: Content of cell elements in BAL in the model of bronchial asthma in guinea pigs; format: in vivo, guinea pig; details: Table 4; 14 mg/kg, 10 times of administration; n = 9
Protocol: Bronchial asthma in guinea pigs was induced by a standard method [Ricciardolo F L, Nijkamp F, De Rose V, Folkerts G. The guinea pig as an animal model for asthma// Current Drug Targets. 2008 June; 9(6):452-65]. The animals were immunized by one parenteral administration of 0.5 mL of a solution comprising 100 μg/mL ovalbumin (Sigma) and 100 mg/mL aluminium hydroxide. Intact animals received a physiological saline solution in an amount of 0.5 mL.
On days 29, 30 and 31, hyperactivity of the respiratory airways was provoked by inhalation administration of ovalbumin in ascending concentrations of 0.1, 0.3, and 0.5 mg/mL on days 1, 2, and 3 of the provocation, respectively. The inhalation lasted 5 minutes or until asphyxia symptoms became apparent (fall to one side). On day 32, the animals received a challenging dose of ovalbumin (1 mg/mL) for 5 minutes, while assessing a bronchospastic reaction.
The studied compounds were administered to the animals once daily every day for 6 or 10 days; the administration was terminated two days before the administration of the challenging dose of antigen.
The bronchoalveolar lavage (BAL) and cardiac cavity blood were derived from the animals 24 hours after administration of the challenging dose. The BAL was collected under anesthesia by lavaging the lungs with 5 mL of a physiological saline solution heated to 37° C. through the trachea, using a syringe dosing device.
The absolute number of cell elements in 1 μL of the lavage (cytosis) was counted in the bronchoalveolar lavage, using the Goryaev camera. Then, the BAL was centrifuged at 200 g for 10 minutes. The residue was used to prepare swabs that were fixed in methanol and stained according to Romanovsky-Giemsa to count endopulmonary cytogram.
The study comprised 3 experiments, wherein the first one was directed to the evaluation of the effect of claimed compounds 1-6 on the cell composition of the BAL, the second and the third experiments were aimed at evaluating the effect of compounds 1 and 2 on the cell composition of the BAL, the cell composition of the blood, and on the bronchospasm severity.

[4] = test system: model of allergic rhinitis in guinea pigs; assay: Content of cell elements in the nasal lavage in the model of allergic rhinitis in guinea pigs; format: in vivo, guinea pig; details: n = 8
Protocol: as §1, §2, §3, §4

[5] = test system: model of atopic dermatitis in mice; assay: Response index in DNCB-induced atopic (allopathic) dermatitis in mice; format: in vivo, male Balb/c mice; details: 10 mg/kg intragastric once daily on days 8-17 (reference preparation); n = 12
Protocol: The model of allopathic dermatitis was realized by a standard method [Mechanism of dinitrochlorobenzene-induced dermatitis in mice: role of specific antibodies in pathogenesis//PLoS One. 2009; 4(11)].
On days 0 and 12 of the study, 100 μL of a 2% solution of 1-chloro-2,4-dinitrobenzene (DNCB, Sigma-Aldrich, US) in 95% ethanol was applied to shaved sites in the backs of male Balb/c mice. On day 17 of the study, to the right “studied” ear of the animals, 20 μL of the alcohol solution of 2% DNCB was applied two times with a one-hour interval. The studied compound and the reference preparation, dexamethasone, were administered by the intragastric route once daily on days 8-17 of the study.
On day 18 of the study, the animals were euthanized in a CO2 camera. The weights of the “studied” and “control” ears were measured. A response index (RI) expressed in percentage of a difference in the weights of the “studied” and “control” ears was calculated.

[6] = 14 mg/kg intragastric, 3 times, nasal lavage 24 hours after last ovalbumin
[7] = 5 mg/kg intragastric, one time (reference preparation)
[8] = 5 mg/kg intragastric, one time 3 hours before last ovalbumin (reference preparation)

## Cn1cnc(CCN2C(=O)CCCC2=O)c1 [Compound 5]
[1]; 1.8 mg/kg intragastric
  Eosinophils, content of cell elements in 1 μL of BAL: 147 ± 44& in 1 μL of BAL
  Leukocytes, content of cell elements in 1 μL of BAL: 2064 ± 257& in 1 μL of BAL
  Lymphocytes, content of cell elements in 1 μL of BAL: 66 ± 26 in 1 μL of BAL
  Macrophages, content of cell elements in 1 μL of BAL: 1576 ± 93& in 1 μL of BAL
  Neutrophils, content of cell elements in 1 μL of BAL: 385 ± 57 in 1 μL of BAL
[1]; 18 mg/kg intragastric
  Eosinophils, content of cell elements in 1 μL of BAL: 34 ± 15& in 1 μL of BAL
  Leukocytes, content of cell elements in 1 μL of BAL: 2189 ± 222& in 1 μL of BAL
  Lymphocytes, content of cell elements in 1 μL of BAL: 121 ± 48 in 1 μL of BAL
  Macrophages, content of cell elements in 1 μL of BAL: 1331 ± 66 & in 1 μL of BAL
  Neutrophils, content of cell elements in 1 μL of BAL: 605 ± 124 in 1 μL of BAL
[2]; 14 mg/kg intragastric, 3 times
  Number of nose scratchings/2 hours: 19.1 ± 4.9 &
  Number of sneezes/2 hours: 7.1 ± 1.3 &
[3]
  Eosinophils in BAL: 1.61 ± 0.86*& 10^9/L
  Lymphocytes in BAL: 1.35 ± 0.34* 10^9/L
  Monocytes in BAL: 0.84 ± 0.23* 10^9/L
  Neutrophils in BAL: 1.05 ± 0.33 10^9/L
[4]; [6]
  Eosinophils, content of cell elements in 1 μL of nasal lavage: 575 ± 143& in 1 μL of nasal lavage
  Leukocytes, content of cell elements in 1 μL of nasal lavage: 1071 ± 233& in 1 μL of nasal lavage
  Lymphocytes, content of cell elements in 1 μL of nasal lavage: 9 ± 7 in 1 μL of nasal lavage
  Macrophages, content of cell elements in 1 μL of nasal lavage: 198 ± 54 in 1 μL of nasal lavage
  Neutrophils, content of cell elements in 1 μL of nasal lavage: 344 ± 50& in 1 μL of nasal lavage

## C[C@@H]1C[C@H]2[C@@H]3CCC4=CC(=O)C=C[C@]4(C)[C@@]3(F)[C@@H](O)C[C@]2(C)[C@@]1(O)C(=O)CO [Dexamethasone, dexamethasone, reference compound]
[5]
  Response index (%): 65.6 ± 8*& %
[2]; [7]
  Number of nose scratchings/2 hours: 16.7 ± 1.8*&
  Number of sneezes/2 hours: 7.9 ± 0.8 &
[4]; [8]
  Eosinophils, content of cell elements in 1 μL of nasal lavage: 365 ± 90& in 1 μL of nasal lavage
  Leukocytes, content of cell elements in 1 μL of nasal lavage: 1186 ± 142& in 1 μL of nasal lavage
  Lymphocytes, content of cell elements in 1 μL of nasal lavage: 5 ± 3 in 1 μL of nasal lavage
  Macrophages, content of cell elements in 1 μL of nasal lavage: 296 ± 71 in 1 μL of nasal lavage
  Neutrophils, content of cell elements in 1 μL of nasal lavage: 328 ± 47& in 1 μL of nasal lavage
